Patent US20210228552A1, “METHOD FOR ADJUSTING RAS UBIQUITINATION” (Xiamen University, priority 2018, published 2021)
Entries after “also recorded” stand apart in the source; their conditions may differ.

Assays:
[1] = tested on: HT-29 cells; assay: Colony forming ability on soft agar, HT-29 cells; type: cell-based, Human; conditions: HT-29 cells (Raf kinase mutation), 10-30 days, FIG. 4(c)
Method: (§1) i. 1% agar was prepared and sterilized under high pressure. 1% Agar was heated and melted in a boiling water bath before use, then cooled in a 40° C. water bath (standing for at least 30 minutes and cooling the agar to 40° C.); and 2×DMEM/FBS was placed in a warm bath at the same time;
(§2) ii. 0.5% bottom agar was prepared by mixing 1% agar and 2×DMEM/FBS in a sterile tube at a volume ratio of 1:1. The mixture was quickly added to a 6-well plate, 1.5 mL per well, gently shake it well, and it was stood at room temperature to be solidified (after solidification, it can be stored at 4° C. for 1 week. Leave at room temperature for at least 30 minutes before use to restore it to room temperature).
(§3) i. A final concentration of 0.3% agar+1×DMEM/FBS mixture was prepared in sterile tubes by using 1% agar at a temperature of 40° C., 2×DMEM/FBS and sterile water. The prepared mixed solution was put into a 40° C. water bath kettle for later use;
(§4) ii. The cells were digested by trypsin and counted, and the cell density was adjusted according to the needs of the experiment; […]

[2] = tested on: MCF-7 cells; assay: Colony forming ability on soft agar, MCF-7 cells; type: cell-based, Human; conditions: 10-30 days, FIG. 4(a)
Method: as §1, §2, §3, §4

[3] = tested on: SW620 cells; assay: Colony forming ability on soft agar, SW620 cells; type: cell-based, Human; conditions: 10-30 days, FIG. 4(b)
Method: as §1, §2, §3, §4

[4] = target: T1, K-Ras-G12V (Homo sapiens, UniProt P01116, G12V); assay: Endogenous K-Ras-G12V protein level in SW620 cells (Western blotting); type: cell-based; set-up: endogenous in cells; host or cells: SW620; conditions: 2.5-20 μM, 24 h, FIG. 3(a)
Method: Compounds that can Decrease the Level of Endogenous K-Ras-G12V were Screened in SW620 Cells
1) Cell plating: SW620 cells in logarithmic growth phase were inoculated into 24-well plates with 2×10^4/well and cultured in 37° C. and 5% CO2 incubator.
2) Cell administration: after 24 hours of culture, various drug stock solutions were diluted […]; the stock solution from the 24-well plate was discarded, then the prepared drug solution was added, with taking the DMSO group as a blank control; after the drug was added, it was transferred to the CO2 incubator at 37° C. to continue the culture.
(§5) 3) Detection of K-Ras protein level: 24 hours after administration, liquid in the well was discarded, the cells were routinely collected, the cells were rinsed twice with 1×PBS, and the cell lysate was added to extract the total cell protein. The protein concentration was determined by BCA method. […]
4) Calculation of single point K-Ras protein degradation rate: quantitative and calibration analysis on K-Ras and β-actin were performed by Image-Lab software, and then the intracellular K-Ras degradation rate was calculated according to the following formula: single point K-Ras protein degradation rate (%)=(control group-administration group)/control group×100%. […]

[5] = target: T1, K-Ras-G12V; assay: Exogenous Flag-K-Ras-G12V protein level in transfected HEK293T cells (Western blotting); type: cell-based; conditions: HEK293T cells transfected with Flag-K-Ras-G12V, 2.5-20 μM, 24 h, FIG. 3(b)
Method: Compounds that can Decrease the Level of Exogenous K-Ras-G12V were Screened in HEK293T Cells
1) Cell plating: HEK293T cells in logarithmic growth phase were inoculated into 12-well plates and cultured in 37° C. and 5% CO2 incubator. The best inoculation amount was at a cell density of 70%-90% when transfected the next day. […]
as §5
4) Calculation of single point K-Ras protein degradation rate: quantitative and calibration analysis on Flag-K-Ras and β-actin were performed by Image-Lab software, and then the intracellular Flag-K-Ras degradation rate was calculated according to the following formula: single point Flag-K-Ras protein degradation rate (%)=(control group-administration group)/control group×100%. […]

O=C(NCc1ccccc1C(F)(F)F)c1c[nH]c(-c2n[nH]c3ncccc23)c1 [ZT-10-158-01]
colony forming ability on agar [1]: no significant inhibitory effect; also recorded: did not inhibit the colony forming ability | colony forming ability on agar [2]: can selectively inhibit the colony formation; also recorded: effective in inhibiting colony forming ability | colony forming ability on agar [3]: can selectively inhibit the colony formation; also recorded: effective in inhibiting colony forming ability | level of endogenous K-Ras-G12V protein [4]: effective in decreasing K-Ras protein levels in cells, and in a positive concentration-dependent correlation; also recorded: effective in decreasing the level of endogenous K-Ras-G12V protein in SW620 cells with a positive concentration-dependent inhibitory effect | level of exogenous K-Ras-G12V protein [5]: effective in decreasing K-Ras protein levels in cells, and in a positive concentration-dependent correlation; also recorded: effective in decreasing the level of exogenous K-Ras-G12V protein in HEK293T cells with a positive concentration-dependent inhibitory effect
